{"source": "PubChem BioAssay (NCI)", "assay_in_all_cases": "DTP human tumour cell line panel, 48 h", "key": {"CAKI-1 renal": {"system": "CAKI-1 renal"}, "A549 NSCLC": {"system": "A549 NSCLC"}, "A498 renal": {"system": "A498 renal"}, "U251 CNS": {"system": "U251 CNS"}, "SF-295 CNS": {"system": "SF-295 CNS"}, "T-47D breast": {"system": "T-47D breast"}, "NCI-H522 lung": {"system": "NCI-H522 lung"}, "NCI-H226 lung": {"system": "NCI-H226 lung"}, "DU-145 prostate": {"system": "DU-145 prostate"}, "HS 578T breast": {"system": "HS 578T breast"}}, "note": "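Five compound concentrations were applied to cells in 96-well plates for 48 hours; endpoints were derived by simple linear interpolation of the resulting dose-response curve. At the GI50, growth is halved. TGI denotes the concentration required for complete inhibition of growth.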", "data": [{"smiles": "CCCOc1ccc2sc(NC(=O)OC)nc2c1", "values": [{"measurement": "GI50", "setting": "CAKI-1 renal", "value": 2.87, "unit": "µM"}, {"measurement": "TGI", "setting": "CAKI-1 renal", "value": "> 100", "unit": "µM"}, {"measurement": "GI50", "setting": "A549 NSCLC", "value": 4.2, "unit": "µM"}, {"measurement": "TGI", "setting": "A549 NSCLC", "value": "> 100", "unit": "µM"}, {"measurement": "GI50", "setting": "A498 renal", "value": 2.34, "unit": "µM"}, {"measurement": "TGI", "setting": "A498 renal", "value": "> 27.1", "unit": "µM"}, {"measurement": "GI50", "setting": "U251 CNS", "value": 2.42, "unit": "µM"}, {"measurement": "TGI", "setting": "U251 CNS", "value": "> 100", "unit": "µM"}, {"measurement": "GI50", "setting": "SF-295 CNS", "value": 2.69, "unit": "µM"}, {"measurement": "TGI", "setting": "SF-295 CNS", "value": "> 100", "unit": "µM"}, {"measurement": "GI50", "setting": "T-47D breast", "value": 2.94, "unit": "µM"}, {"measurement": "TGI", "setting": "T-47D breast", "value": "> 100", "unit": "µM"}, {"measurement": "GI50", "setting": "NCI-H522 lung", "value": 1.69, "unit": "µM"}, {"measurement": "TGI", "setting": "NCI-H522 lung", "value": "> 25", "unit": "µM"}, {"measurement": "GI50", "setting": "NCI-H226 lung", "value": "> 100", "unit": "µM"}, {"measurement": "TGI", "setting": "NCI-H226 lung", "value": "> 100", "unit": "µM"}, {"measurement": "GI50", "setting": "DU-145 prostate", "value": 4.05, "unit": "µM"}, {"measurement": "TGI", "setting": "DU-145 prostate", "value": "> 100", "unit": "µM"}, {"measurement": "GI50", "setting": "HS 578T breast", "value": 3.48, "unit": "µM"}, {"measurement": "TGI", "setting": "HS 578T breast", "value": "> 100", "unit": "µM"}]}, {"smiles": "OCc1ccn2c1[C@@H](O)CC2", "values": [{"measurement": "TGI", "setting": "CAKI-1 renal", "value": "> 100", "unit": "µM"}, {"measurement": "TGI", "setting": "A549 NSCLC", "value": "> 100", "unit": "µM"}, {"measurement": "TGI", "setting": "A498 renal", "value": "> 100", "unit": "µM"}, {"measurement": "TGI", "setting": "U251 CNS", "value": "> 100", "unit": "µM"}, {"measurement": "TGI", "setting": "SF-295 CNS", "value": "> 100", "unit": "µM"}, {"measurement": "TGI", "setting": "T-47D breast", "value": "> 100", "unit": "µM"}, {"measurement": "TGI", "setting": "NCI-H522 lung", "value": "> 100", "unit": "µM"}, {"measurement": "TGI", "setting": "NCI-H226 lung", "value": "> 100", "unit": "µM"}, {"measurement": "TGI", "setting": "DU-145 prostate", "value": "> 100", "unit": "µM"}, {"measurement": "TGI", "setting": "HS 578T breast", "value": "> 100", "unit": "µM"}]}, {"smiles": "O=C(O)c1ccc(OCc2ccccc2)c(Cl)c1", "values": [{"measurement": "TGI", "setting": "CAKI-1 renal", "value": "> 100", "unit": "µM"}, {"measurement": "TGI", "setting": "A549 NSCLC", "value": "> 100", "unit": "µM"}, {"measurement": "TGI", "setting": "A498 renal", "value": "> 100", "unit": "µM"}, {"measurement": "TGI", "setting": "U251 CNS", "value": "> 100", "unit": "µM"}, {"measurement": "TGI", "setting": "SF-295 CNS", "value": "> 100", "unit": "µM"}, {"measurement": "TGI", "setting": "T-47D breast", "value": "> 100", "unit": "µM"}, {"measurement": "TGI", "setting": "NCI-H522 lung", "value": "> 100", "unit": "µM"}, {"measurement": "TGI", "setting": "NCI-H226 lung", "value": "> 100", "unit": "µM"}, {"measurement": "TGI", "setting": "DU-145 prostate", "value": "> 100", "unit": "µM"}, {"measurement": "TGI", "setting": "HS 578T breast", "value": "> 100", "unit": "µM"}]}, {"smiles": "N#CC1=C(N)Oc2cc(O)ccc2C1c1cccc2ccccc12", "note": "(stereo not given)", "values": [{"measurement": "GI50", "setting": "CAKI-1 renal", "value": 8.55, "unit": "µM"}, {"measurement": "TGI", "setting": "CAKI-1 renal", "value": 27, "unit": "µM"}, {"measurement": "GI50", "setting": "A549 NSCLC", "value": 7.02, "unit": "µM"}, {"measurement": "TGI", "setting": "A549 NSCLC", "value": "> 100", "unit": "µM"}, {"measurement": "GI50", "setting": "A498 renal", "value": 5.25, "unit": "µM"}, {"measurement": "TGI", "setting": "A498 renal", "value": 22.7, "unit": "µM"}, {"measurement": "GI50", "setting": "U251 CNS", "value": 16.6, "unit": "µM"}, {"measurement": "TGI", "setting": "U251 CNS", "value": 43, "unit": "µM"}, {"measurement": "GI50", "setting": "SF-295 CNS", "value": 7.28, "unit": "µM"}, {"measurement": "TGI", "setting": "SF-295 CNS", "value": 25.6, "unit": "µM"}, {"measurement": "GI50", "setting": "T-47D breast", "value": 17.2, "unit": "µM"}, {"measurement": "TGI", "setting": "T-47D breast", "value": 58.7, "unit": "µM"}, {"measurement": "GI50", "setting": "NCI-H522 lung", "value": 6.08, "unit": "µM"}, {"measurement": "TGI", "setting": "NCI-H522 lung", "value": 19.7, "unit": "µM"}, {"measurement": "GI50", "setting": "NCI-H226 lung", "value": 24.2, "unit": "µM"}, {"measurement": "TGI", "setting": "NCI-H226 lung", "value": 82.3, "unit": "µM"}, {"measurement": "GI50", "setting": "DU-145 prostate", "value": 12.1, "unit": "µM"}, {"measurement": "TGI", "setting": "DU-145 prostate", "value": 29.7, "unit": "µM"}, {"measurement": "GI50", "setting": "HS 578T breast", "value": 16.6, "unit": "µM"}, {"measurement": "TGI", "setting": "HS 578T breast", "value": 73, "unit": "µM"}]}, {"smiles": "Cc1nc(-[n+]2nc(-c3ccncc3)nn2-c2ccccc2)sc1C", "values": [{"measurement": "TGI", "setting": "CAKI-1 renal", "value": "> 100", "unit": "µM"}, {"measurement": "TGI", "setting": "A549 NSCLC", "value": "> 100", "unit": "µM"}, {"measurement": "TGI", "setting": "A498 renal", "value": "> 100", "unit": "µM"}, {"measurement": "TGI", "setting": "U251 CNS", "value": "> 100", "unit": "µM"}, {"measurement": "TGI", "setting": "SF-295 CNS", "value": "> 100", "unit": "µM"}, {"measurement": "TGI", "setting": "T-47D breast", "value": "> 100", "unit": "µM"}, {"measurement": "TGI", "setting": "NCI-H522 lung", "value": 76.5, "unit": "µM"}, {"measurement": "TGI", "setting": "NCI-H226 lung", "value": 95.9, "unit": "µM"}, {"measurement": "TGI", "setting": "DU-145 prostate", "value": "> 100", "unit": "µM"}, {"measurement": "TGI", "setting": "HS 578T breast", "value": "> 100", "unit": "µM"}]}, {"smiles": "C=C1C(=O)OC2CC(C)C3(O)CCC(=O)C3(C)CC12", "note": "(stereo not given)", "values": [{"measurement": "TGI", "setting": "CAKI-1 renal", "value": 44.4, "unit": "µM"}, {"measurement": "TGI", "setting": "A549 NSCLC", "value": "> 100", "unit": "µM"}, {"measurement": "TGI", "setting": "A498 renal", "value": 66.2, "unit": "µM"}, {"measurement": "TGI", "setting": "U251 CNS", "value": "> 100", "unit": "µM"}, {"measurement": "TGI", "setting": "SF-295 CNS", "value": "> 100", "unit": "µM"}, {"measurement": "TGI", "setting": "T-47D breast", "value": "> 100", "unit": "µM"}, {"measurement": "TGI", "setting": "NCI-H522 lung", "value": 30.3, "unit": "µM"}, {"measurement": "TGI", "setting": "NCI-H226 lung", "value": "> 100", "unit": "µM"}, {"measurement": "TGI", "setting": "DU-145 prostate", "value": "> 100", "unit": "µM"}, {"measurement": "TGI", "setting": "HS 578T breast", "value": 61.4, "unit": "µM"}]}]}
